# Data: patent publication US20250042884A1, “3-ARYLOXYL-3-FIVE-MEMBERED HETEROARYL PROPYLAMINE COMPOUND AND USE THEREOF” (Shanghai Leado Pharmatech Co. Ltd., priority 2018, published 2025)
# Legend:
# TRPA1 = TRPA1 (Mus musculus (Mouse), UniProt Q8BLA8); experiment: Manual patch clamp test of TRPA1 inhibitory activity; assay type: cell-based; settings: FIG. 2
# Experimental: The TRPA1 inhibitory activity of compound I-1 was evaluated by manual patch clamp test method.
# C57BL/6 mice = experiment: Mice formalin pain model (acute and inflammatory pain); assay type: in vivo; settings: for Licking claw time (s) in phase II (10-60 min): hydrochloride salt, blank vehicle 349.55 ± 43.09
# Description: 150 C57BL/6 mice (male, 9-week aged) were randomly divided into 15 groups, (each group had 10 mice) for the analgesic activity test of 3 compounds in the mice formalin pain model respectively: the compound I-1 group (compound I-1 prepared in Example 2 whose hydrochloride salt was used in the experiment), the S-duloxetine group (its hydrochloride salt was used in the experiment) and the compound C1 group (the compound C1 prepared in Comparative Example 1, whose hydrochloride salt was used in the experiment). Before the start of experiments, the mice were allowed to adapt to the experimental environment for 72 h with free feeding and drinking water. The test drugs were administrated by intraperitoneal injection at a dosage as follows:
# Compound I-1 group: blank vehicle (blank saline control), 0.1 mg/kg, 0.5 mg/kg, 1 mg/kg, 5 mg/kg and 10 mg/kg;
# S-duloxetine group: blank vehicle (blank saline control), 1 mg/kg, 5 mg/kg, 10 mg/kg and 20 mg/kg;
# Compound C1 group: blank vehicle (blank saline control), 0.1 mg/kg, 0.5 mg/kg, 1 mg/kg, 5 mg/kg and 10 mg/kg.
# After administration, the mice were placed in a transparent, ventilated plexiglass cylinder for 1 h, and then 20 μl of 4% formalin solution was injected into the left hind plantar of mice of each group by microinjector, claw pain response in mice were real-time recorded by a mini-camera. The time length of licking left claw were used as an indicator of pain response, licking time in 0-10 min (phase I) and 10-60 min (phase II) were observed and recorded, and the statistical analysis was conducted. The half effective dose (ED50) of 3 compounds were calculated: ED50 referred to the dose of the drug which decreased licking time by half as compared with the blank control group. The smaller the ED50 value was, the lower the effective analgesic dose of the compound was and the better the analgesic effect was.
# ICR mice = experiment: Mice acetic acid writhing pain model (visceral and inflammatory pain); assay type: in vivo; settings: for number of appearance of writhing reactions (visceral pain) within 30 min: 1 h before acetic acid, saline group 49 times
# Experimental: Male ICR mice, 22-25 g, were fasted but allowed to drink water freely for 2 h before administration. All ICR mice were weighed and grouped randomly, each group had >10 animals. […] The drug was administrated by gavage based on the weight of mice. 1.5% acetic acid solution (0.1 ml/10 g) was injected intraperitoneally 1 h after administration, and the number of times of visceral pain in each group was observed within 30 min. When concave abdomen, stretched trunk and hind claw, and high buttocks appeared, one number point was recorded. Finally, the number of appearance of the above phenomenon was counted within 30 minutes.
# TRPA1, sequence (Q8BLA8 whole entry): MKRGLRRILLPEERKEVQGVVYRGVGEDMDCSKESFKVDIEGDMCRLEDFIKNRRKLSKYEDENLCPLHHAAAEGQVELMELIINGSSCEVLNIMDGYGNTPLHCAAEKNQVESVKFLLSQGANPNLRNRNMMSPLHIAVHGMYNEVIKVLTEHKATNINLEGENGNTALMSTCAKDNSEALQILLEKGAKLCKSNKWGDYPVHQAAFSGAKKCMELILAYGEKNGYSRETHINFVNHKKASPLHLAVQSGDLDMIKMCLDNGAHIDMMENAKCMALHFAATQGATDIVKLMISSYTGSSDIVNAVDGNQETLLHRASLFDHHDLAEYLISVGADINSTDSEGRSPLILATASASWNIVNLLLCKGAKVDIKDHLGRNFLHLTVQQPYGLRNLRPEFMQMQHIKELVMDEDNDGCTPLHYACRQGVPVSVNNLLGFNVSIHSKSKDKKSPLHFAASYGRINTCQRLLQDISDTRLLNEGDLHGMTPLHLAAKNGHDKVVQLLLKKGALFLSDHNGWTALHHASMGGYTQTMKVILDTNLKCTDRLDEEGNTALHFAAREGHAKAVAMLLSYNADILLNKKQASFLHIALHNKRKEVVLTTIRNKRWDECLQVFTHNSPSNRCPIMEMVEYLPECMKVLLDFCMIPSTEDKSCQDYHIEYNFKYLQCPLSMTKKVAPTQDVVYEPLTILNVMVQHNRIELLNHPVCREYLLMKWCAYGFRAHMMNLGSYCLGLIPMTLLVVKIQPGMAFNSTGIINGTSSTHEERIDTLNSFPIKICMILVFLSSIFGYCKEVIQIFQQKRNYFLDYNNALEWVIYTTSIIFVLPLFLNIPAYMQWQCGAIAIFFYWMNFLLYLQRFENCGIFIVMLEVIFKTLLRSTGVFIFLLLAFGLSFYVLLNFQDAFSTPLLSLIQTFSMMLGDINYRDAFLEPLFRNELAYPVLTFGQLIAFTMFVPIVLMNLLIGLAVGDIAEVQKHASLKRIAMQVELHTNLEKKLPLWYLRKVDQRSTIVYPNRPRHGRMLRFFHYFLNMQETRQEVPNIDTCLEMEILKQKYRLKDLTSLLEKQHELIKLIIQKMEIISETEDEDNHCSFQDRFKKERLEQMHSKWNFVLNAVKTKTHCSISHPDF
structure (smiles),measurement,setting,value
"CNCC[C@@H](Oc1cccc2ccoc12)c1cccs1 [Compound I-1, (R)-3-(benzofuran-7-yloxy)-N-methyl-3-(thiophen-2-yl)propyl-1-amine]",IC50,TRPA1,0.42 µM
same,Licking claw time (s) in phase II (10-60 min),C57BL/6 mice; 0.1 mg/kg intraperitoneal,321.55 ± 47.75 s
same,decrease of licking time in phase II (10-60 min) compared with the blank vehicle,C57BL/6 mice; 0.5 mg/kg intraperitoneal,more than 50%
same,Licking claw time (s) in phase II (10-60 min),C57BL/6 mice; 0.5 mg/kg intraperitoneal,161.25 ± 30.83 s
same,Licking claw time (s) in phase II (10-60 min),C57BL/6 mice; 1 mg/kg intraperitoneal,131.28 ± 23.99 s
same,Licking claw time (s) in phase II (10-60 min),C57BL/6 mice; 5 mg/kg intraperitoneal,87.85 ± 25.15 s
same,Licking claw time (s) in phase II (10-60 min),C57BL/6 mice; 10 mg/kg intraperitoneal,99.08 ± 19.73 s
same,ED50 times stronger than S-duloxetine,"C57BL/6 mice; phase II, mice formalin model",30.8 times
same,ED50 times stronger than compound C1,"C57BL/6 mice; phase II, mice formalin model",8.5 times
same,number of appearance of writhing reactions (visceral pain) within 30 min,ICR mice; 5 mg/kg by gavage,19 times
same,number of visceral pain lower than the saline control group,"ICR mice; 5 mg/kg by gavage, 19 times vs 49 times",50%
same,number of appearance of writhing reactions (visceral pain) within 30 min,ICR mice; 10 mg/kg by gavage,16 times
